In US20110224297A1, “Methods of administering prostratin and structural analogs thereof” (priority 2008, published 2011):
Where two headings read alike, the source gives them in different places.

Columns and labels:
[1] = tested on: rhesus macaque monkeys; experiment: Dose-range finding study in monkeys and determination of MTD; format: in vivo
Experimental: (§1) After a suitable wash-out period (15-20 days), monkeys that previously received 0.1 mg/kg, were administered a dose of 0.6 mg/kg, and those that previously received 0.4 mg/kg, were administered a second dose of 0.4 mg/kg. Blood was collected as before for clinical pathology and cytokine assay analysis. There was no mortality in this study. However both animals receiving 0.6 mg/kg prostratin required more time (2-4 times as much) to recover from Ketamine (used as a chemical restraint while weighing and dosing) after the second dosing compared with the initial doses. On day 3, all monkeys had elevated (2-3 fold) fibrinogen levels and there was evidence of dose-dependent hepatotoxicity.

[2] = as above; format: in vivo, rhesus macaque monkeys; conditions: rhesus monkey, in vivo
Experimental: as §1

[3] = tested on: rats; experiment: DART work in rats (IV injection); format: in vivo; conditions: for maximum tolerated i.v. dose: iv bolus
Experimental: Extrapolation was performed from the DART work that was all done in rats as an IV injection (not infusion). Infusions and injections are by definition 100% bio-available meaning it all gets in.
The oral doses were estimated based on a maximum tolerated i.v. dose of 0.4 mg/kg from the DART work in rats, but an oral bio-availability of only 29%. Thus, the maximum tolerated i.v. dose was multiplied by three (i.e., 0.4 mg/kg times 3 equals 1.2 mg/kg as the equivalent oral dose). The purpose of the two lower oral doses (both 0.8 mg/kg, therefore a total of 1.6 mg/kg) and the infusion (0.8 mg/kg over three hours) was to see if the maximum tolerated dose could be exceeded by dividing up the oral into two times 75% the max tolerated dose or as an infusion over 3 hours.

## CC(=O)O[C@@]12C[C@@H](C)[C@@]3(O)[C@@H](C=C(CO)C[C@]4(O)C(=O)C(C)=C[C@@H]34)[C@@H]1C2(C)C [prostratin, 12-deoxyphorbol 13-acetate]
[1]; 0.6 mg/kg
  time to recover from Ketamine compared with the initial doses: 2-4 times
[1]; 0.6 mg/kg dose group, day 3
  increase in level of ALT and AST over baseline: 25-50 fold
[1]; 0.1 and 0.4 mg/kg i.v. bolus, day 1
  time after which plasma drug level is undetectable: 4 h
[1]; all clinical pathology measurements normal by day 15
  reversibility of toxicities: reversible
[1]; day 3, all monkeys
  elevation of fibrinogen levels: 2-3 fold
[1]; day 3, dose-dependent
  CK and LD levels: increases
[1]; female monkeys, 0.4 and 0.6 mg/kg
  level of IL-6: increase
[1]; i.v. bolus 0.1, 0.4 and 0.6 mg/kg
  mortality: no mortality
[1]; single intravenous bolus 0.1 or 0.4 mg/kg
  toxicity at the initial doses: absence of toxicity
[2]; both sexes, iv, monkeys, single bolus i.v. dose, read-out: MTD
  MTD at 15 days: 0.4 to 0.6 mg/kg
[2]; intravenous, as restated in Example 13, read-out: MTD later found in monkeys at NIH
  MTD at 15 days: 0.2 to 0.4 mg/kg
[3]
  oral bio-availability: 29%
  maximum tolerated i.v. dose: 0.4 mg/kg
[3]; listed as Prostratin
  maximum tolerated i.v. dose: Dosages in Male Rats (MTD via iv bolus dose: 0.4 mg/kg)
